Laboratory results taken from patent US7662417B2, “Preservatives and protective systems” (Laboratorios Miret, S.A., priority 2002, dated 2010).

How the values were obtained:
metabolism in rats = assay type: in vivo
[1] = test system: Escherichia coli ATCC 8739; experiment: standard CMI evaluation; assay type: cell-based; conditions: tested at 683-8 mg/L, both products contain 21% LAE
Experimental: (§1) A precipitate of xanthan/LAE is formed when 150 mL of a solution containing 1.3% of xanthan gum and 300 mL of a solution containing 0.3% of LAE are mixed. Then, 2.5 g of white solid are isolated by filtration.

[2] = test system: Salmonella typhimurium ATCC 16028; experiment: standard CMI evaluation; assay type: cell-based; conditions: tested at 683-8 mg/L, both products contain 21% LAE
Experimental: as §1

[3] = test system: Aspergillus niger ATCC 14604; experiment: standard CMI evaluation; assay type: cell-based; conditions: tested at 683-8 mg/L, both products contain 21% LAE
Experimental: as §1

[4] = test system: Candida albicans ATCC 10231; experiment: standard CMI evaluation; assay type: cell-based; conditions: tested at 683-8 mg/L, both products contain 21% LAE
Experimental: as §1

[5] = test system: Enterobacter aerogenes CECT 684; experiment: standard CMI evaluation; assay type: cell-based; conditions: tested at 683-8 mg/L, both products contain 21% LAE
Experimental: as §1

[6] = test system: Rhodotorula ruba CECT 1158; experiment: standard CMI evaluation; assay type: cell-based; conditions: tested at 683-8 mg/L, both products contain 21% LAE
Experimental: as §1

[7] = test system: Bacillus cereus ATCC 9634; experiment: standard CMI evaluation; assay type: cell-based; conditions: tested at 683-8 mg/L, both products contain 21% LAE
Experimental: as §1

[8] = test system: Citrobacter intermedium CECT 401; experiment: standard CMI evaluation; assay type: cell-based; conditions: tested at 683-8 mg/L, both products contain 21% LAE
Experimental: as §1

[9] = test system: Staphylococcus aureus ATCC 6538; experiment: standard CMI evaluation; assay type: cell-based; conditions: tested at 683-8 mg/L, both products contain 21% LAE
Experimental: as §1

[10] = test system: Pseudomonas aeruginosa ATCC 9023; experiment: standard CMI evaluation; assay type: cell-based; conditions: tested at 683-8 mg/L, both products contain 21% LAE
Experimental: as §1

toxicological studies = assay type: in vivo; conditions: animals and humans

Structure (SMILES): CCCCCCCCCCCC(=O)N[C@@H](CCCN=C(N)N)C(=O)OCC.Cl [LAE, ethyl ester of the lauramide of the arginine monohydrochloride]
- absorption and metabolism (metabolism in rats): fast absorption and metabolisation into naturally-occurring amino acids and the fatty acid lauric acid
- CMI [1]: 128 mg/L
- CMI [2]: 128 mg/L
- CMI [3]: 170 mg/L
- CMI [4]: 128 mg/L
- CMI [5]: 128 mg/L
- CMI [6]: 128 mg/L
- CMI [7]: 128 mg/L
- CMI [8]: 128 mg/L
- CMI [9]: 128 mg/L
- CMI [10]: 256 mg/L
- toxicity (toxicological studies): completely harmless
